# Measurements as given in publication PMC5535261 (Journal of Medicinal Chemistry, 2017).
# Columns and labels:
# [1] = Mouse liver microsome stability; conditions: for T1/2 (min) no NADPH / half-life: mouse liver microsomes; for microsomal CLint / half-life: mouse, microsomes
# [2] = tested on: P. berghei-infected female Swiss Webster mice; conditions: oral; for mouse survival extended compared to vehicle-treated control animals: one or two daily doses of 4 mg/kg; for 50% curative dose (PD50): free bases, 4 daily doses, estimated from dose–efficacy study (Table 3)
# [3] = tested on: W2 P. falciparum parasites; test: Plasmodium falciparum growth inhibition assay; conditions: 12f vs 2f
# [4] = physchem; conditions: pH 7.4
# [5] = tested on: similar models (P. berghei-infected mice); conditions: single dose 20 mg/kg; cited from earlier work
# [6] = T1/2 (min), half-life when incubated with mouse liver microsomes
Compound,T1/2 (min) no NADPH ([1]; no NADPH),microsomal CLint [1],"half-life [1, 6]",also measured
"NC(=O)CNC(=O)C[C@H]1CC[C@]2(CC1)OO[C@]1(O2)C2CC3CC(C2)CC1C3 [2b, reference compound]",stable,,,
NC1CCN(C(=O)C[C@@H]2CCC[C@]3(C2)OOC2(O3)C3CC4CC(C3)CC2C4)CC1 (stereo partly drawn) [12i],stable,8.2 µL/min/mg,1.41 h,mouse survival extended compared to vehicle-treated control animals [2]: 3 to 6 days
O=C(C[C@@H]1CCC[C@]2(C1)OOC1(O2)C2CC3CC(C2)CC1C3)N1CCOCC1 (stereo partly drawn) [12f],,,,"fold more potent than cis-4″ regioisomer 2f (EC50, W2) [3]: 3 fold"
"CC(C)(N)CNC(=O)C[C@H]1CC[C@]2(CC1)OO[C@]1(O2)C2CC3CC(C2)CC1C3 [2a, arterolane, reference compound]",stable,,,solubility kinetic [4]: 433 µM; 50% curative dose (PD50) [2]: ~4 mg kg^–1 day^–1
O=C(C[C@@H]1CCC[C@]2(C1)OOC1(O2)C2CC3CC(C2)CC1C3)N1CCNCC1 (stereo partly drawn) [12g],stable,27.2 µL/min/mg,0.425 h,
"CC(C)(CN)CNC(=O)C[C@H]1CC[C@]2(CC1)OO[C@]1(O2)C2CC3CC(C2)CC1C3 [2d, reference compound]",stable,,,
"c1cc([C@H]2CC[C@]3(CC2)OO[C@]2(O3)C3CC4CC(C3)CC2C4)ccc1OCCN1CCOCC1 [compound 3, artefenomel]",,,,single-dose efficacy [5]: single-dose cures
CC(C)(CN)CNC(=O)C[C@@H]1CCC[C@]2(C1)OOC1(O2)C2CC3CC(C2)CC1C3 (stereo partly drawn) [12d],stable,10.8 µL/min/mg,1.07 h,
CC(C)(N)CNC(=O)C[C@@H]1CCC[C@]2(C1)OOC1(O2)C2CC3CC(C2)CC1C3 (stereo partly drawn) [12a],stable,4.1 µL/min/mg,2.82 h,solubility kinetic [4]: 429 µM; 50% curative dose (PD50) [2]: ~6 mg kg^–1 day^–1
NC(=O)CNC(=O)C[C@@H]1CCC[C@]2(C1)OOC1(O2)C2CC3CC(C2)CC1C3 (stereo partly drawn) [12b],stable,18.6 µL/min/mg,0.622 h,
NCCNC(=O)C[C@@H]1CCC[C@]2(C1)OOC1(O2)C2CC3CC(C2)CC1C3 (stereo partly drawn) [12c],,8.2 µL/min/mg,1.41 h,"mouse survival extended compared to vehicle-treated control animals [2]: 3 to 6 days; half-life ([1]; T1/2 (min) no NADPH, no NADPH): 2.27 h"
"NC1CCN(C(=O)C[C@H]2CC[C@]3(CC2)OO[C@]2(O3)C3CC4CC(C3)CC2C4)CC1 [2i, reference compound]",stable,,,
